The text below walks through data of patent US10968232B2 (Merck Sharp & Dohme Corp., priority 2016, dated 2021).

Molecules are shown by their SMILES.

The target of this test is T1, human GPR40 (Homo sapiens, UniProt O14842).
T1 construct: expressed in transfected cells
In words: Inositol Phosphate Turnover (IP1) Assay. Format: cell-based. To be noted: HEK cells stably expressing human GPR40; CisBio IP-One kit; 60 minutes at 37 degrees; read-out: Human IP1 EC50. In outline: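 HEK cells stably expressing GPR40, plated 16 h, then exposed to compound in stimulation buffer for 60 min at 37 °C. IP1 accumulation read by HTRF IP-One detection after 60 min at RT.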

T1 sequence (O14842 whole entry): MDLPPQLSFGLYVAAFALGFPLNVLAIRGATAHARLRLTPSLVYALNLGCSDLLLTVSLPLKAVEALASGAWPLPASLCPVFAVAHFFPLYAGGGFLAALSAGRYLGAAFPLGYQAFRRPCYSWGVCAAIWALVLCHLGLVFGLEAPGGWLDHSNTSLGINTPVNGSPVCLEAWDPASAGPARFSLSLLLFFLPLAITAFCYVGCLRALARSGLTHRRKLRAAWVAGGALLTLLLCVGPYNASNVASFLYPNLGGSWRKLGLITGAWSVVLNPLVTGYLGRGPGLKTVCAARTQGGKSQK

On to `C[C@H](C(=O)O)[C@H](c1ccc2c(c1)OC1(CC2)CCC(N(C)c2cc(C(F)(F)F)ccc2C(F)(F)F)CC1)C1CC1` (stereo partly drawn) [Example 70, (2S,3R)-3-(4′-((2,5-bis(trifluoromethyl)phenyl) (methyl)amino)spiro [chroman-2,1′-cyclohexan]-7-yl)-3-cyclopropyl-2-methylpropanoic acid], for which the EC50 (usually the concentration giving half of the maximal effect) stood at 1.74 nM.

Take `C[C@H](C(=O)O)[C@H](c1ccc2c(c1)OC1(CC2)CCN(c2ccc3nc(C(F)(F)F)cn3n2)CC1)C1CC1` [Example 71, (2S,3R)-3-cyclopropyl-2-methyl-3-(1′-(2-(trifluoromethyl)imidazo[1,2-b]-pyridazin-6-yl)spiro[chroman-2,4′-piperidin]-7-yl)propanoic Acid]: the EC50 came to 545 nM.

For the molecule `C[C@H](C(=O)O)[C@H](c1ccc2c(c1)OC1(CC2)CCN(Cc2cn(C)nc2C(F)(F)F)CC1)C1CC1` [Example 72, (2S,3R)-3-cyclopropyl-2-methyl-3-(1′-((1-methyl-3-(trifluoromethyl)-1H-pyrazol-4-yl)methyl)spiro[chroman-2,4′-piperidin]-7-yl)propanoic Acid], the EC50 came to 995 nM.

As for `C[C@H](C(=O)O)[C@H](c1ccc2c(c1)OC1(CC2)CCN(Cc2cc(C3CC3)ccc2OC(F)(F)F)CC1)C1CC1` [Example 76, (2S,3R)-3-cyclopropyl-3-(1′-(5-cyclopropyl-2-(trifluoromethoxy)benzyl)spiro[chroman-2,4′-piperidin]-7-yl)-2-methylpropanoic Acid], the EC50 was found to be 11.7 nM.

As for `Cc1ccc(OC(F)(F)F)c(CN2CCC3(CCc4ccc([C@H](C5CC5)[C@H](C)C(=O)O)cc4O3)CC2)c1` [Example 77, (2S,3R)-3-cyclopropyl-2-methyl-3-(1′-(5-methyl-2-(trifluoromethoxy)benzyl)spiro[chroman-2,4′-piperidin]-7-yl)propanoic acid], the EC50 was found to be 23.4 nM.

On to `C[C@H](C(=O)O)[C@H](c1ccc2c(c1)OC1(CC2)[C@@H]2CC[C@H]1CN([C@H](C)c1cc(F)ccc1C(F)(F)F)C2)C1CC1` (stereo partly drawn) [Example 84, (2S,3R)-3-cyclopropyl-3-((1R,5S)-3-((R)-1-(5-fluoro-2-(trifluoro-methyl)phenyl)ethyl)-3-azaspiro[bicyclo[3.2.1]oc-tane-8,2′-chroman]-7′-yl)-2-methylpropanoic acid], for which the EC50 was determined as 28.5 nM.

`C[C@H](C(=O)O)[C@H](c1ccc2c(c1)OC1(CC2)[C@@H]2CC[C@H]1CN([C@@H](C)c1cc(C(F)(F)F)ccc1C(F)(F)F)C2)C1CC1` (stereo partly drawn) [Example 86, (2S,3R)-3-((1R,5S)-3-((S)-1-(2,5-bis(trifluoro-methyl)phenyl)ethyl)-3-azaspiro[bicyclo[3.2.1]oc-tane-8,2′-chroman]-7′-yl)-3-cyclopropyl-2-methylpropanic acid]: the EC50 is 46.5 nM.

Regarding `C[C@H](C(=O)O)[C@H](c1ccc2c(c1)OC1(CC2)CC(N(C)c2ncccc2C(F)(F)F)C1)C1CC1` (stereo partly drawn) [Example 89, (2S,3R)-3-cyclopropyl-2-methyl-3-(3′-(methyl(3-(trifluoromethyl)pyridin-2-yl)amino)spiro[chroman-2,1′-cyclobutan]-7-yl)propanoic Acid], the EC50 is 13.1 nM.

As to `C[C@H](C(=O)O)[C@H](c1ccc2c(c1)OC1(CC2)CC(N(C)c2ncccc2C(F)(F)F)C1)C1CC1` (stereo partly drawn) [Example 90, (2S,3R)-3-cyclo-propyl-2-methyl-3-(3′-(methyl(3-(trifluoro-methyl)pyridin-2-yl)amino)spiro[chro-man-2,1′-cyclobutan]-7-yl)propanoic acid], the EC50 was determined as 7.24 nM.

Take `C[C@H](C(=O)O)[C@H](c1ccc2c(c1)OC1(CC2)CC(N[C@H](C)c2cc(C(F)(F)F)ccc2C(F)(F)F)C1)C1CC1` (stereo partly drawn) [Example 91, (2S,3R)-3-(3′-((1-(2,5-bis(trifluoromethyl)phenyl)ethyl)amino)spiro[chroman-2,1′-cyclobutan]-7-yl)-3-cyclopropyl-2-methylpropanoic Acid]: the EC50 was 8.62 nM.
